Data published in patent US11851419B2, “GLP-1R modulating compounds” (Gilead Sciences, Inc., priority 2020, dated 2023).
pEC50: −log10 of the molar value.

Columns and labels:
GLP-1R [1] = target: T1, GLP-1R (Homo sapiens, UniProt P43220); test: GLP-1R Activation - cAMP Assay 2 (cAMP increase in CHO cells stably expressing GLP-1R, pre-spotted agonists); type: cell-based; details: assay buffer or 100% Human Plasma (not given), 30 minutes at 37° C.
Method: GLP-1R Activation—cAMP Assay 2
GLP-1R activation by small molecule agonists is quantified by measuring cAMP increase in CHO cells stably expressing GLP-1R (MultiSpan product #C1267-1a). 50 nL of agonists are pre-spotted in a 10 point dose response onto 384-well plate (Corning product #CL3826) using the Labcyte Echo System. The cells are harvested and plated in assay buffer (HBSS (Corning product #21-023-CV) with 20 mM Hepes (Gibco product #15630-080) and 0.1% BSA (Rockland Immunochemicals product #BSA-1000)) or 100% Human Plasma (Innovative Research product #50-643-396) at 1,000 cells/well, 10 µL/well, onto the pre-spotted plates. The cells are then incubated for 30 minutes at 37° C., 5% CO2. cAMP concentration increase is then detected using Cisbio's cAMP Gs Dynamic Kit (product #62AM4PEC) according to the manufacturer's protocol. The response is plotted against the log of the agonist concentration and fitted to a sigmoidal equation to determine the EC50.

GLP-1R [2] = target: T1, GLP-1R; test: GLP-1R Activation - cAMP Assay 1 (cAMP increase in CHO cells stably expressing GLP-1R); type: cell-based; details: 10 point dose response, 30 minutes incubation at 37° C., cAMP Gs Dynamic Kit
Method: GLP-1R Activation—cAMP Assay 1
GLP-1R activation by a compound of the present disclosure was quantified by measuring cAMP increase in CHO cells stably expressing GLP-1R (MultiSpan product #C1267-1a). The cells were harvested and plated in growth medium (DMEM/F-12 (Corning product #10-090-CV) supplemented with 10% FBS (HyClone product #SH30071-03), penicillin/streptomycin (Corning product #30-002CI) and 10 µg/ml puromycin (Gibco product #A11138-03)) at 1,000 cells/well in a 384-well plate (Greiner product #781080). The cells were then incubated overnight at 37° C., 5% CO2. The next day, the medium was removed and the cells were washed with DPBS (Corning product #21-031-CM) before adding the assay medium (HBSS, Corning product #21-023-CV) with 20 mM Hepes (Gibco product #15630-080) and 0. 1% BSA (Rockland Immunochemicals product #BSA-1000)). Following the medium change, the cells were incubated for 1 hour at 37° C., 5% CO2. The tested GLP-1 compound was added to the cells in a 10 point dose response followed by a 30 minutes incubation at 37° C., 5% CO2. cAMP concentration increase was then detected using Cisbio's cAMP Gs Dynamic Kit (product #62AM4PEC) according to the manufacturer's protocol. The response was plotted against the log of the agonist concentration and fitted to a sigmoidal equation to determine the EC50.

T1 sequence (P43220 24-463): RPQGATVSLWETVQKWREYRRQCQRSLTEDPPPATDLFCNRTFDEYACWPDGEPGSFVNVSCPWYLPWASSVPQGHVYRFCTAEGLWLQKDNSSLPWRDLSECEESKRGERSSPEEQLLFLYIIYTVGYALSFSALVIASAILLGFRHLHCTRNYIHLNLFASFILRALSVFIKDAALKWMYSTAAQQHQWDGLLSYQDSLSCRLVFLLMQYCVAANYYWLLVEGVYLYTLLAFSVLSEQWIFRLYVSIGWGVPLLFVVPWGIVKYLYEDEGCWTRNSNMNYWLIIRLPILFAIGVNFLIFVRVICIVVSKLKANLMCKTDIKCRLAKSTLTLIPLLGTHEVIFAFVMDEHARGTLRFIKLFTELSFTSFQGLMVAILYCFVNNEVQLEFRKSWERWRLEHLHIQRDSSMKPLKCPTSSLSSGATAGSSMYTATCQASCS

| SMILES | pEC50 (GLP-1R [1]) | pEC50 (GLP-1R [2]) |
| --- | --- | --- |
| COCCn1c(CN2CCC(c3cccc(OCc4ccc(C(N)=O)cc4F)n3)CC2)nc2c(F)c(Nc3ccccc3)c(C(=O)O)cc21 [Example 2, 2-((4-(6-((4-carbamoyl-2-fluorobenzyl)oxy)pyridin-2-yl)piperidin-1-yl)methyl)-4-fluoro-1-(2-methoxyethyl)-5-(phenylamino)-1H-benzo[d]imidazole-6-carboxylic Acid] | 6.76 | – |
| N#Cc1ccc(COc2nc(N3CCN(Cc4nc5c(F)cc(C(=O)O)cc5n4C[C@@H]4CCO4)CC3)ccc2F)c(F)c1 [Example 22, 2-[[4-[6-[(4-cyano-2-fluoro-phenyl)methoxy]-5-fluoro-2-pyridyl]piperazin-1-yl]methyl]-7-fluoro-3-[[(2S)-oxetan-2-yl]methyl]benzimidazole-5-carboxylic Acid] | 9.66 | – |
| COCCn1c(C[C@H]2CC[C@H](c3cccc(OCc4ccc(C#N)cc4F)n3)CC2)nc2c(-c3ccn(C)n3)cc(C(=O)O)cc21 [Example 32, 2-(((1r,4r)-4-(6-((4-cyano-2-fluorobenzyl)oxy)pyridin-2-yl)cyclohexyl)methyl)-1-(2-methoxyethyl)-4-(1-methyl-1H-pyrazol-3-yl)-1H-benzo[d]imidazole-6-carboxylic Acid] | 7.97 | – |
| COCCn1c(CN2CCC(c3cccc(OCc4ccc(C#N)cc4F)n3)CC2)nc2c(-c3cnn(C)c3)cc(C(=O)O)cc21 [Example 29, 2-((4-(6-((4-cyano-2-fluorobenzyl)oxy)pyridin-2-yl)piperidin-1-yl)methyl)-1-(2-methoxyethyl)-4-(1-methyl-1H-pyrazol-4-yl)-1H-benzo[d]imidazole-6-carboxylic Acid] | – | 6.98 |
| COCCn1c(CN2CCC(c3cccc(OCc4ccc(C#N)cc4F)n3)CC2)nc2c(F)c(Nc3ccccc3)c(C(=O)O)cc21 [Example 1, 2-((4-(6-((4-cyano-2-fluorobenzyl)oxy)pyridin-2-yl)piperidin-1-yl)methyl)-4-fluoro-1-(2-methoxyethyl)-5-(phenylamino)-1H-benzo[d]imidazole-6-carboxylic acid] | 7.82 | – |
| N#Cc1ccc(COc2cccc(N3CCN(Cc4nc5c(-c6ccccn6)cc(C(=O)O)cc5n4C[C@@H]4CCO4)CC3)n2)c(F)c1 [Example 6] | 8.59 | – |
| N#Cc1ccc(COc2cccc(N3CCN(Cc4nc5c(F)cc(C(=O)O)cc5n4C[C@@H]4CCO4)CC3)n2)c(F)c1 [Example 23] | 10.51 | – |
| CC(C)(O)C#Cc1cc(C(=O)O)cc2c1nc(CN1CCN(c3cccc(OCc4ccc(C#N)cc4F)n3)CC1)n2C[C@@H]1CCO1 [Example 11, 2-[[4-[6-[(4-cyano-2-fluoro-phenyl)methoxy]-2-pyridyl]piperazin-1-yl]methyl]-7-(3-hydroxy-3-methyl-but-1-ynyl)-3-[[(2S)-oxetan-2-yl]methyl]benzimidazole-5-carboxylic Acid] | 8.77 | – |
| CC(C)(O)C#Cc1cc(C(=O)O)cc2c1nc(CN1CCN(c3cccc(OCc4ccc(C(N)=O)cc4F)n3)CC1)n2C[C@@H]1CCO1 [Example 13, 2-[[4-[6-[(4-carbamoyl-2-fluoro-phenyl)methoxy]-2-pyridyl]piperazin-1-yl]methyl]-7-(3-hydroxy-3-methyl-but-1-ynyl)-3-[[(2S)-oxetan-2-yl]methyl]benzimidazole-5-carboxylic Acid] | 7.50 | – |
| COCCn1c(C[C@H]2CC[C@@H](c3cccc(OCc4ccc(C#N)cc4F)n3)CC2)nc2c(-c3ccn(C)n3)cc(C(=O)O)cc21 [Example 31, 2-(((1s,4s)-4-(6-((4-cyano-2-fluorobenzyl)oxy)pyridin-2-yl)cyclohexyl)methyl)-1-(2-methoxyethyl)-4-(1-methyl-1H-pyrazol-3-yl)-1H-benzo[d]imidazole-6-carboxylic Acid] | 6.87 | – |
| COCCn1c(CN2CCN(c3cccc(OCc4ccc(C#N)cc4F)n3)CC2)nc2c(F)c(Nc3ccccc3)c(C(=O)O)cc21 [Example 3, 2-((4-(6-((4-cyano-2-fluorobenzyl)oxy)pyridin-2-yl)piperazin-1-yl)methyl)-4-fluoro-1-(2-methoxyethyl)-5-(phenylamino)-1H-benzo[d]imidazole-6-carboxylic acid] | 8.72 | – |
| CC(C)(O)C#Cc1cc2nc(CN3CCC(c4cccc(OCc5ccc(C#N)cc5F)n4)CC3)n(C[C@@H]3CCO3)c2cc1C(=O)O [Example 16, (S)-2-((4-(6-((4-cyano-2-fluorobenzyl)oxy)pyridin-2-yl)piperidin-1-yl)methyl)-5-(3-hydroxy-3-methylbut-1-yn-1-yl)-1-(oxetan-2-ylmethyl)-1H-benzo[d]imidazole-6-carboxylic Acid] | 7.54 | – |
| CC(C)(C)OC(=O)Nc1cc2nc(CN3CCC(c4cccc(OCc5ccc(C#N)cc5F)n4)CC3)n(C[C@@H]3CCO3)c2cc1C(=O)O [Example 24, 6-(tert-butoxycarbonylamino)-2-[[4-[6-[(4-cyano-2-fluoro-phenyl)methoxy]-2-pyridyl]-1-piperidyl]methyl]-3-[[(2S)-oxetan-2-yl]methyl]benzimidazole-5-carboxylic Acid] | 9.29 | – |

Results, then the molecule that gave them:

| pEC50 (GLP-1R [1]) | pEC50 (GLP-1R [2]) | SMILES |
| --- | --- | --- |
| 7.88 | – | Cn1cc(-c2cc3nc(CN4CCC(c5cccc(OCc6ccc(C#N)cc6F)n5)CC4)n(C[C@@H]4CCO4)c3cc2C(=O)O)cn1 [Example 17, (S)-2-((4-(6-((4-cyano-2-fluorobenzyl)oxy)pyridin-2-yl)piperidin-1-yl)methyl)-5-(1-methyl-1H-pyrazol-4-yl)-1-(oxetan-2-ylmethyl)-1H-benzo[d]imidazole-6-carboxylic Acid] |
| 8.01 | – | N#Cc1ccc(COc2cccc(C3CCN(Cc4nc5c(-c6ccccn6)cc(C(=O)O)cc5n4C[C@@H]4CCO4)CC3)n2)c(F)c1 [Example 5, Methyl 2-[[4-[6-[(4-cyano-2-fluoro-phenyl)methoxy]-2-pyridyl]-1-piperidyl]methyl]-3-[[(2S)-oxetan-2-yl]methyl]-7-(2-pyridyl)benzimidazole-5-carboxylic Acid] |
| 9.01 | – | Cn1ccc(-c2cc(C(=O)O)cc3c2nc(CN2CCC(c4cccc(OCc5ccc(C#N)cc5F)n4)CC2)n3C[C@@H]2CCO2)n1 [Example 18, 2-[[4-[6-[(4-cyano-2-fluoro-phenyl)methoxy]-2-pyridyl]-1-piperidyl]methyl]-7-(1-methylpyrazol-3-yl)-3-[[(2S)-oxetan-2-yl]methyl]benzimidazole-5-carboxylic Acid] |
| 10.15 | – | N#Cc1ccc(COc2nc(C3CCN(Cc4nc5c(F)cc(C(=O)O)cc5n4C[C@@H]4CCO4)CC3)ccc2F)c(F)c1 [Example 20, 2-[[4-[6-[(4-cyano-2-fluoro-phenyl)methoxy]-5-fluoro-2-pyridyl]-1-piperidyl]methyl]-7-fluoro-3-[[(2S)-oxetan-2-yl]methyl]benzimidazole-5-carboxylic Acid] |
| 7.28 | – | Cn1ccc(-c2cc3nc(CN4CCC(c5cccc(OCc6ccc(C#N)cc6F)n5)CC4)n(C[C@@H]4CCO4)c3cc2C(=O)O)n1 [Example 30, 2-[[4-[6-[(4-cyano-2-fluoro-phenyl)methoxy]-2-pyridyl]-1-piperidyl]methyl]-6-(1-methylpyrazol-3-yl)-3-[[(2S)-oxetan-2-yl]methyl]benzimidazole-5-carboxylic Acid] |
| 9.52 | – | Cn1ccc(-c2cc(C(=O)O)cc3c2nc(CN2CCN(c4cccc(OCc5ccc(C#N)cc5F)n4)CC2)n3C[C@@H]2CCO2)n1 [Example 19, 2-[[4-[6-[(4-cyano-2-fluoro-phenyl)methoxy]-2-pyridyl]piperazin-1-yl]methyl]-7-(1-methylpyrazol-3-yl)-3-[[(2S)-oxetan-2-yl]methyl]benzimidazole-5-carboxylic Acid] |
| 8.92 | – | Cn1ccc(-c2cc(C(=O)O)cc3c2nc(CN2CCC(c4ccnc(OCc5ccc(C#N)cc5F)n4)CC2)n3C[C@@H]2CCO2)n1 [Example 4, (S)-2-((4-(2-((4-cyano-2-fluorobenzyl)oxy)pyrimidin-4-yl)piperidin-1-yl)methyl)-4-(1-methyl-1H-pyrazol-3-yl)-1-(oxetan-2-ylmethyl)-1H-benzo[d]imidazole-6-carboxylic Acid] |
| 10.42 | – | N#Cc1ccc(COc2cccc(C3CCN(Cc4nc5c(F)cc(C(=O)O)cc5n4C[C@@H]4CCO4)CC3)n2)c(F)c1 [Example 21] |
| 9.09 | – | CC(C)(O)C#Cc1cc(C(=O)O)cc2c1nc(CN1CCC(c3cccc(OCc4ccc(C#N)cc4F)n3)CC1)n2C[C@@H]1CCO1 [Example 12] |
